According to US9839701B2, “Aromatic amino acid derivative and positron emission topography (PET) probe using the same” (OSAKA UNIVERSITY, priority 2013, dated 2017):

How the values were obtained:
human LAT1 = molecular target: T1, human LAT1 (Homo sapiens, UniProt Q01650); assay: Inhibition of amino acid uptake in human LAT1 stably expressing cell line; type: cell-based
T1 construct: expressed in transfected cells
Description: (§1) A human LAT1 expression vector or a human LAT2 expression vector was transfected using Lipofectamine (registered trademark) 2000 (Invitrogen) into a human embryonic kidney cell line HEK293. G418-resistant HEK293 clones were selected, and among them, a clone showing human LAT1-specific amino acid uptake and a clone showing human LAT2-specific amino acid uptake were selected and established as a human LAT1 stably expressing cell line and a human LAT2 stably expressing cell line, respectively (Khunweeraphong et al. J Pharmacol Sci. 2012 Aug. 18; 119(4): 368-80. Epub 2012 Jul. 31).
(§2) The human LAT1 stably expressing cell line and the human LAT2 stably expressing cell line were seeded at 1.2×10^5 cells/well on separate collagen-coated 24-well plates, and after 48 hours, the cells were washed 3 times with an uptake buffer (Na^2+-free Hank's balanced salt solution (HBSS), pH 7.4) prewarmed at 37° C. Compound 10a, compound 10b or a positive control FAMT (fluoro-α-methyltyrosine) was added at 100 μM, and incubation was performed at 37° C. for 3 minutes. Cells not treated with any of these compounds were used as a negative control. After the incubation, 1 μM of [^14C]L-leucine or [^14C]alanine was added to the wells, [^14C]L-leucine or [^14C]alanine uptake was allowed to proceed for 1 minute, and the cells were washed 3 times with an ice-cold uptake buffer. Subsequently, 500 μL of 0.1 M NaOH was added to each well for cell lysis, 20 μL of the lysate was used for the measurement of the protein concentration, and the remaining lysate was used for the measurement of the intracellular radioactivity. The measured radioactivity was normalized to the protein concentration, and on the assumption that the amino acid uptake activity in the negative control was 100%, the percentage (%) of inhibition of amino acid uptake in the presence of each compound was calculated.
(§3) Using the same cell lines as described in Example 2, the compound of Example 1 was examined for the inhibitory effect on leucine or alanine uptake in the human LAT1 stably expressing cell line and the human LAT2 stably expressing cell line in the same manner as in Example 2. FAMT was used as the positive control. The compound of Example 1 or FAMT was added at 100 μM. Cells not treated with either of these compounds were used as a negative control. On the assumption that the amino acid uptake activity in the negative control (control) was 100%, the percentage (%) of inhibition of amino acid uptake in the presence of FAMT or the compound of Example 1 was calculated. In addition, the cancer cell selectivity was calculated as the ratio of the amino acid uptake activity in the human LAT2 stably expressing cell line relative to that in the human LAT1 stably expressing cell line.
(§4) In another experiment, the cells were treated with the compound of Example 1 at eight different concentrations (0.1, 1, 3, 10, 30, 100, 300 and 1000 μM), and the concentration causing 50% inhibition of amino acid uptake was calculated as the IC50 value.
(§5) A human LAT1 stably expressing cell line and a human LAT2 stably expressing cell line, each of which was the same as described in Example 2, were seeded at 1.2×10^5 cells/well, and after 48 hours, the cells were washed 3 times with an uptake buffer (Na^2+-free Hank's balanced salt solution (HBSS), pH 7.4) prewarmed at 37° C. The test compounds, L-tyrosine or the positive control FAMT (fluoro-α-methyltyrosine) was added at 30 μM, and incubation was performed at 37° C. for 3 minutes. Cells not treated with any of these compounds were used as a negative control. After the incubation, 1 μM of [^14C]L-leucine or [^14C]alanine was added to the wells, [^14C]L-leucine or [^14C]alanine uptake was allowed to proceed for 1 minute, and the cells were washed 3 times with an ice-cold uptake buffer. […]

human LAT2 = molecular target: T2, human LAT2 (Homo sapiens, UniProt Q9UHI5); assay: Inhibition of amino acid uptake in human LAT2 stably expressing cell line; type: cell-based; settings: human LAT2 stably expressing HEK293 cell line; for inhibition at 30 µM: HEK293, compound at 30 μM, read-out: Percentage of inhibition of LAT2-mediated amino acid uptake
T2 construct: expressed in transfected cells
T2 sequence (Q9UHI5 1-535): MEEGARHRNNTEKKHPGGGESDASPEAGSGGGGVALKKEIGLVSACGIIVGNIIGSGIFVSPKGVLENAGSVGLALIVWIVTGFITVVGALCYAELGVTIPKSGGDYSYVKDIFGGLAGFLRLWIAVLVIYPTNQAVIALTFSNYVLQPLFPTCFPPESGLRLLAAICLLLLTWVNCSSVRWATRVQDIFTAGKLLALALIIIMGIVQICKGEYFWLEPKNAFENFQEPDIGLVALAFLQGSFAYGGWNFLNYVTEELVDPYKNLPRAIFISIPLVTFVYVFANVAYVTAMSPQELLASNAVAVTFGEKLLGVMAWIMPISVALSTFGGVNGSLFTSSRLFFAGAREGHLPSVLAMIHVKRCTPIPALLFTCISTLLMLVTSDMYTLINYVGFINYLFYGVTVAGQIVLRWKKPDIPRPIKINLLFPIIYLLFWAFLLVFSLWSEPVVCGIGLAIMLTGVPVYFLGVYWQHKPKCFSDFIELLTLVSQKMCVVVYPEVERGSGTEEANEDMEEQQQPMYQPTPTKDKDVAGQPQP
T2 sequence (P08195 1-529 partner): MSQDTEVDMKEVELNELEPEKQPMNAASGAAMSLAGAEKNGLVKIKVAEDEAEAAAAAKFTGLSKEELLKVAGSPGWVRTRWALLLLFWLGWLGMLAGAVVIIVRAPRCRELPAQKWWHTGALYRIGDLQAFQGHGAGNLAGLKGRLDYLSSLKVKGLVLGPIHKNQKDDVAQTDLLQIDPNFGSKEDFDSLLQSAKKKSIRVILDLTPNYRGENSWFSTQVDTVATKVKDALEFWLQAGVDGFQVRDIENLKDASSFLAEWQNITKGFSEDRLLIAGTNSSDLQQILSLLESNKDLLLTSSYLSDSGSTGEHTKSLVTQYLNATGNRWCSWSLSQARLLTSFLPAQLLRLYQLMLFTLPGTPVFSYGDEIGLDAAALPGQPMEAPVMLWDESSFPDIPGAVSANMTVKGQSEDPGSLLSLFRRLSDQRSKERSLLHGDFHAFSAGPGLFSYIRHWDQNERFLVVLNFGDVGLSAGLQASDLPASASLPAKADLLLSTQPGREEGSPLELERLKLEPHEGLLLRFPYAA
Description: as §1, §2, §3, §4, §5

[1] = compound at 30 μM, human LAT1 stably expressing HEK293 cell line, 30 µM

T1 sequence (Q01650 whole entry, one chain of several): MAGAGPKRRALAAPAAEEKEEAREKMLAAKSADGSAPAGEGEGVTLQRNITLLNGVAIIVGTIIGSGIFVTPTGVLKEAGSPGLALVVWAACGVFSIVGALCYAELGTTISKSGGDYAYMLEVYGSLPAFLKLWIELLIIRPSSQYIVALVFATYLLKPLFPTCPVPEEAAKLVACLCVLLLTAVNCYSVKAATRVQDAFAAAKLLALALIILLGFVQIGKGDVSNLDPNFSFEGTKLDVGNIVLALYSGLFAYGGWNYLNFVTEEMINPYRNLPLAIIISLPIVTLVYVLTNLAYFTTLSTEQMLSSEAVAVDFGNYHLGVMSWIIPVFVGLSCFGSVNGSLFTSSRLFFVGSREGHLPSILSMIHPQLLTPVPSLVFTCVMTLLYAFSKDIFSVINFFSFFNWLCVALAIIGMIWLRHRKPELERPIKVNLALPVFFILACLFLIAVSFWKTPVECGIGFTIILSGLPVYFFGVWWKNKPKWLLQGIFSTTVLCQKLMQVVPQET

Row | Compound | Cancer cell selectivity (amino acid uptake activity in human LAT2 line / in human LAT1 line) (human LAT1; compound at 30 μM) | Percentage of inhibition of LAT1-mediated amino acid uptake (human LAT1; [1]) [%] | Percentage of inhibition of LAT2-mediated amino acid uptake (human LAT2; compound at 30 μM, 30 µM) [%] | other results
1 | N[C@@H](Cc1ccc(O)cc1)C(=O)O [L-Tyr, L-tyrosine, reference compound] | 1.16 |  |  | inhibition at 30 µM (human LAT1; HEK293, compound at 30 μM, human LAT1 stably expressing HEK293 cell line, read-out: Percentage of inhibition of LAT1-mediated amino acid uptake): 42.3%; inhibition at 30 µM (human LAT2): 33.1%
2 | fluoro-α-methyltyrosine [FAMT, reference compound] | 1.5 |  |  | Percentage of inhibition of LAT1-mediated amino acid uptake (human LAT1; compound at 30 μM, human LAT1 stably expressing HEK293 cell line): 44.2%; Percentage of inhibition of LAT1-mediated amino acid uptake (human LAT1; compound at 100 μM, human LAT1 stably expressing HEK293 cell line, 1 μM [14C]L-leucine or [14C]alanine, 1 min uptake): 52.4%; Percentage of inhibition of LAT2-mediated amino acid uptake (human LAT2; compound at 30 μM): 16.3%; Percentage of inhibition of LAT2-mediated amino acid uptake (human LAT2; compound at 100 μM, 1 μM [14C]L-leucine or [14C]alanine, 1 min uptake): 28.3%
3 | NC(Cc1cc(OCCOCCF)ccc1I)C(=O)O (single isomer, unassigned) [compound 27 (S), 2-amino-3-(5-(2-(2-fluoroethoxy)ethoxy)-2-iodophenyl)propanoic acid] | 9.04 | 89.5 | 6.5 | 
4 | NC(Cc1cc(OCCF)ccc1I)C(=O)O (single isomer, unassigned) [compound 10b, 2-amino-3-(5-(2-fluoroethoxy)-2-iodophenyl)propanoic acid] | 8.59 | 91.2 | 24.5 | Cancer cell selectivity (amino acid uptake activity in human LAT2 line / in human LAT1 line) (human LAT1; compound at 100 μM): higher than that in the human LAT2 stably expressing cell line
5 | NC(Cc1cc(OCCCCF)ccc1I)C(=O)O (single isomer, unassigned) [compound 25b, 2-amino-3-(5-(4-fluorobutoxy)-2-iodophenyl)propanoic acid] | 15.13 | 94.1 | 11.3 | 
6 | NC(Cc1cc(OCCF)ccc1I)C(=O)O (single isomer, unassigned) [compound 10a, 2-amino-3-(5-(2-fluoroethoxy)-2-iodophenyl)propanoic acid] | 1.44 | 33.8 | 4.7 | Cancer cell selectivity (amino acid uptake activity in human LAT2 line / in human LAT1 line) (human LAT1; compound at 100 μM): higher than that in the human LAT2 stably expressing cell line
7 | NC(Cc1cc(OCCF)ccc1C1CC1)C(=O)O (single isomer, unassigned) [compound 23a, 2-amino-3-(2-cyclopropyl-5-(2-fluoroethoxy)phenyl)propanoic acid] | 1.41 | 37.5 | 11.8 | 
8 | NC(Cc1cc(OCCF)ccc1Br)C(=O)O (single isomer, unassigned) [compound 24a, 2-amino-3-(2-bromo-5-(2-fluoroethoxy)phenyl)propanoic acid] | 1.12 | 11.6 | 0.8 | 
9 | NC(Cc1cc(OCCOCCF)ccc1I)C(=O)O (single isomer, unassigned) [compound 27 (R), 2-amino-3-(5-(2-(2-fluoroethoxy)ethoxy)-2-iodophenyl)propanoic acid] | 1.39 | 35.4 |  | inhibition at 30 µM (human LAT2): 10.6%
10 | NC(Cc1cc(OCCCCF)ccc1I)C(=O)O (single isomer, unassigned) [compound 25a, 2-amino-3-(5-(4-fluorobutoxy)-2-iodophenyl)propanoic acid] | 1.49 | 37.7 |  | inhibition at 30 µM (human LAT2): 7.3%
11 | NC(Cc1cc(OCCF)ccc1Br)C(=O)O (single isomer, unassigned) [compound 24b, 2-amino-3-(2-bromo-5-(2-fluoroethoxy)phenyl)propanoic acid] | 4.42 | 85.1 | 34.3 | 
